Where a name gives a salt, the structure may show the parent alone. Read-outs that look alike come from different tables or passages of the source.

The subject of one assay is S. enteritidis. The experiment in a line: S. enteritidis colony counts in broth (Examples 1-3, 17). The following applies: pH 4.5; for log cfu/mL (S. enteritidis colony counts in broth): total 5 g/L, protocol of Example 1; for inhibitory effect on S. enteritidis: 5 g/l, Example 17; for log cfu/mL: Table 24, blends total 5 g/L, control […].
The next assay relates to E. coli. The experiment in a line: E. coli colony counts over time in soy broth at pH 4 or 7.3 (Example 5). The class given is cell-based. Particulars: FIG. 5. As to the method: The cultures were incubated, and colony counts performed at increasing times.
The next assay has as its system Salmonella. Particulars: for Average cfu/g / Average Δ log / Average log: protocol of Example 9; for Average Δ log: versus control; for Δ log: Table 11, 90 min 37 C.
A further assay concerns E. coli (ATCC 25922). The experiment in a line: E. coli populations in trypticase soy broth with acid:Alimet blends (Example 4). Particulars: Table 7, total 6 g/L, initial 4.97 log cfu/mL. The assay is classed as cell-based. The source says:
Blends of organic acid:Alimet® of 2:1 and 5:1 were studied, at a total concentration (organic acid+Alimet®) of 6 g/L.
The pH of the solutions were originally adjusted to pH 5 by addition of HCl and/or NaOH as needed. Activated E. coli culture solutions were transferred to fresh soy broth twice at 24-hour intervals prior to before addition of the organic acid:Alimet® blend. E. coli culture solutions were centrifuged; pellet produced was re-suspended with Butterfield buffer, and the resulting solutions were diluted to approximately 10^7 CFU E. coil/mL.
Bottles were inoculated with 100 μL of prepared bacterial suspension and an organic acid:Alimet® blend. Samples were taken after five and 24 hours of incubation, serially diluted and spread-plated on trypticase soy agar, and incubated at 35° C. for 24 hours.

The next assay deals with mold. The experiment in a line: Mold growth in starter mash by CO2 formation in headspace (Examples 7, 8). The following applies: basal diet 85.2% dry matter; 2.0, 1.5 and 1.0 lb/ton; FIG. 12. As to the method: Fungal growth in basal starter mash was studied in compositions supplemented with DLM or Alimet® as the methionine source. Total microbial growth was monitored by measuring carbon dioxide (CO2) formation in sealed vessels at 28° C. over time.
The technique of using a closed system and measuring CO2 formation has been verified as an approximation of the conditions found in grain storage bins. See, e.g., Muir et al., Trans. ASAE, 28(5) 1673-1675 (1985), the contents of which are hereby incorporated by reference in their entirety.
A mash starter mash feed (formulation shown in Table 9, below) was subdivided into three groups: basal (control), 0.2% DLM, or 0.2% Alimet®. The feed studied had no commercial mold inhibitors added, and is representative of a typical broiler feed.
Initial moisture of the feed was 10.8%. After the addition of Alimet® or DLM, the moisture of the samples was adjusted by the addition of 2%, 4%, or 6% sterile distilled water to promote mold growth, achieving three moisture groups: […].
For each study, four replicate samples of each moisture group were mixed, and 600 g of the mixture was placed into 1 L containers, sealed, and placed at 28° C. in a temperature-controlled room. Draeger Detector tubes (CO2-measuring, obtained from Fisher Scientific) were used to measure the developed CO2 at different days following vessel sealing (two measurements were made per week). Draeger Short-Term Detector Tubes are glass tubes filled with inert carrier and an indicating reagent. The reagent produces a colorimetric indication in the presence of a particular gas (CO2). The concentration of gas is read directly from the discoloration on the tube's printed scale.
The specific mold species present were not identified. Statistical analysis was accomplished by using Duncan's multiple range test (SAS). Different letters on individual time points in FIGS. 9-11 indicate statistical differences of P<0.05.
The experiment described above in Example 7 was repeated with blends of 2.0 lb/ton, 1.5 lb/ton, 1.0 lb/ton or 0.5 lb/ton of 65% propionic acid and either […]. The blends were prepared according to the matrix outlined in Table 8, below. The 65% propionic acid was buffered with ammonium hydroxide to a pH of 5.5.

Assay [1] relates to Common carp, Cyprinus carpio L. In words: Feeding preference of common carp, number of bites (Example 25). The class given is in vivo. The following applies: for Bites/10 minutes: test diet vs control diet in same tank. As to the method: Common carp, Cyprinus carpio L. from a commercial fish farm were acquired and sorted to common body weight and length, about 20 g and 8-11 cm, respectively. […] Diets were mixed with adequate water to create a stable feed ball. […] Twenty tanks (45 cm×40 cm×45 cm) were dedicated the feeding behavior assessment. Two fish were housed in each tank with two feeding bars per tank. […] The water in each tank was aerated 24 h a day and the fish were fed the control diet under the above conditions for one week prior to the study. To evaluate preference, the control and test diets were each placed on one of the two bars in each tank.

[2] abbreviates: Table 26, acid or formaldehyde plus Alimet.
Setting [3] is: Table 38, formulations of Table 36 (g/kg).
[4] abbreviates: Table 37, formulations of Table 36 (g/kg).
Where [5] appears, read: Table 34, formulations of Table 33 (g/kg).

Procedure for Salmonella: Tests were carried out using 1 g feed (crumble ground) with 6% meat and bone meal (“MBM”). […] The acid solutions were added to the feed as indicated below; water (1 mL) and 150 mM HCl (1.8 mL) was added to bring the pH to 4.0. Naldixic Acid resistant Salmonella (provided by Dr. Stan Bailey, USDA/ARS, Athens, Ga.) (initial colony count=40,000 cfu/g) was added, and the feed solutions were incubated at 37 C for 90 min. Each sample was diluted with 6 mL H2O, plated, and counted the following day.

Consider `O=P(O)(O)O` [Blend A123], for which the “log cfu/mL (S. enteritidis colony counts in broth)” value in the assay on S. enteritidis (setting [2]) is listed as 4.68 log cfu/mL.
With `CCC(=O)O` [propionic, propionic acid], the “inhibitory effect on S. enteritidis” value in the assay with S. enteritidis was “do not show a significant inhibitory effect”.
Take `CC(O)C(=O)O` (stereo not shown) [lactic, lactic acid]: in the assay with E. coli, the “decrease of colony counts of E. coli vs hydrochloric acid” value is “better than hydrochloric acid”. The “inhibitory effect on S. enteritidis” value with S. enteritidis is on record as “do not show a significant inhibitory effect”.
Turning to `CSCCC(O)C(=O)O` (stereo not shown) [Blend A207], in the assay on Salmonella (Table 38), the “Trial 1 cfu/g” value stood at 0 cfu/g, the “Trial 2 cfu/g” value was 0 cfu/g, the “Trial 3 cfu/g” value was 0 cfu/g and the “Average Δ log” value was found to be 4.2. The “Trial 4 cfu/g” value in the assay on Salmonella (Table 38, Trial 4) is 0 cfu/g. In the assay with Salmonella (setting [3]), the Average cfu/g stood at 0 cfu/g.
For the compound `CCC(=O)O` [Blend A117], in the assay on S. enteritidis (setting [2]), the “log cfu/mL (S. enteritidis colony counts in broth)” value is listed as 4.34 log cfu/mL.
With `CCC(=O)O` [Blend A204], in the assay on Salmonella (Table 38), the “Trial 1 cfu/g” value is given as 5,400 cfu/g, the “Trial 2 cfu/g” value is on record as 1,600 cfu/g and the “Average Δ log” value worked out at 0.6. For the same compound, in the assay with Salmonella (setting [3]), the Average cfu/g is on record as 3,500 cfu/g and the Average log stood at 3.5.
`CCCC(=O)O` [Blend A87]: in the assay on S. enteritidis, the “log cfu/mL” value is 4.44 log cfu/mL.
Take `O=C(O)/C=C/C(=O)O` [fumaric, fumaric acid]: the “inhibitory effect on S. enteritidis” value with S. enteritidis is reported as “do not show a significant inhibitory effect”.
As for `CCCC(=O)O` [Blend A177], in the assay with Salmonella (Table 37), the “Trial 1 cfu/g” value is on record as 5,400 cfu/g, the “Trial 2 cfu/g” value is 7,000 cfu/g, the “Trial 3 cfu/g” value is listed as 6,600 cfu/g and the “Average Δ log” value was 0.5. Further, in the assay on Salmonella (setting [4]), the Average cfu/g is given as 6,333 cfu/g and the Average log is recorded as 3.8.
Regarding `O=C(O)CC(O)C(=O)O` (stereo not shown) [Blend A111], the “log cfu/mL (S. enteritidis colony counts in broth)” value in the assay with S. enteritidis (Table 25, acid plus Alimet) came out at 5.01 log cfu/mL.
Still for that read-out and setting: the value for `O=C(O)/C=C/C(=O)O` [Blend A99] was 4.68 log cfu/mL.
With `O=C(O)CC(O)(CC(=O)O)C(=O)O` [Blend A93], the “log cfu/mL” value in the assay with S. enteritidis came to 4.74 log cfu/mL.
`CCCC(=O)O` [butyric, butyric acid]: the Δ log turned out to be 0.7 in the assay on Salmonella (10 g/L, vs control); 4.0 in the assay on Salmonella (30 g/L, vs control); 4.0 in the assay with Salmonella (50 g/L, vs control).
As for `Cl` [HCl, hydrochloric acid], in the assay with E. coli (ATCC 25922), the “log cfu/mL t = 4 h” value turned out to be 7.85 log cfu/mL and the “log cfu/mL t = 24 h” value amounted to 8.34 log cfu/mL.
`O=CO` [Blend A81]: the “log cfu/mL” value with S. enteritidis amounted to 3.93 log cfu/mL.
Take `C=O` [Blend A129]: in the assay with S. enteritidis (setting [2]), the “log cfu/mL (S. enteritidis colony counts in broth)” value is given as −0.30 log cfu/mL.
In the assay on Salmonella (Table 13, blends without Alimet, control 4.7), `CCCC(=O)O` [Blend A16] displayed a log cfu/g of 2.7 log cfu/g. Besides, in the assay with Salmonella (Table 13, blends without Alimet, vs control), the Δ log reduction amounted to 2.0.
As to `CCC(=O)O` [65% propionic acid, propionic acid], the “delay of the onset of mold growth” value in the assay with mold is listed as “about 11 days”.
For `CSCCC(O)C(=O)O` (stereo not shown) [MHA, methionine hydroxy analog], the figures for the Bites/10 minutes in assay [1] (MHA 0.077 % Inclusion), in assay [1] (MHA 0.154 % Inclusion) and in assay [1] (MHA 0.308 % Inclusion) were 74.39 ± 14.14 Bites/10 minutes, 67.73 ± 23.18 Bites/10 minutes and 63.52 ± 20.23 Bites/10 minutes, respectively. In addition, the “number of bites vs control diet” value in assay [1] (common carp, 10 minutes, 0.07-0.28% Alimet or 0.077-0.308% MHA in diet) is “significantly higher”.
With `O=P(O)(O)O` [Phosphoric, phosphoric acid], the “inhibitory effect on S. enteritidis” value with S. enteritidis was “do not show a significant inhibitory effect”.
Regarding `CC(O)C(=O)O` (stereo not shown) [Blend A105], the “log cfu/mL (S. enteritidis colony counts in broth)” value in the assay with S. enteritidis (Table 25, acid plus Alimet) came to 4.44 log cfu/mL.
Consider `CCCC(=O)O` [Blend A147], for which, in the assay on Salmonella (Table 34), the “Trial 1 cfu/g” value is given as 22,200 cfu/g, the “Trial 2 cfu/g” value was 15,400 cfu/g and the “Average Δ log” value turned out to be 0.4. In the assay with Salmonella (setting [5]), the Average cfu/g is 18,800 cfu/g and the Average log was 4.3.
Turning to `O=C(O)CC(O)C(=O)O` (stereo not shown) [malic, malic acid], in the assay with S. enteritidis, the “inhibitory effect on S. enteritidis” value is on record as “do not show a significant inhibitory effect”.

(Values after US7465471B2, “Palatability of aquaculture feed” (Novus International, Inc., priority 2003, dated 2008).)
